Read-outs that look alike come from different tables or passages of the source.
Experiments:
hyperlipidemia rats [1] = assay: Liver and kidney indexes in high-fat diet hyperlipidemia rats; assay type: in vivo, SD rats; details: 20 mg/(kg d) by gastric gavage, 4 weeks, x ± s, n = 9
Source text: (§1) Animals: 54 SPF-grade SD rats, weighing 120±10 g, provided by Laboratory Animal Business Department, Shanghai Family Planning Research Institute, China, Animal license number: SCXK(Shanghai)2018-0006.
(§2) Modeling scheme: 54 adult rats of 120±10 g were selected and fed adaptively for three days. They were then randomly divided to 6 groups, 9 animals for each group. They were blank control group, model group, positive control group, nuciferine group, and nuciferine structural modification group. The blank control group was fed with normal diet. […] The feeding and modeling time was 5 weeks.
(§3) Liver tissue sample collection: the rats were killed by dislocation, and the liver was taken out immediately after death, which was observed by naked eye to find out whether there was abnormal color and lesions, and was then rinsed with ice normal saline. The left lobe of the liver was quickly cut into small pieces and fixed in 10% formaldehyde overnight for sectioning. The tissue of the right lobe of the liver was quickly wrapped in tin box and stored at −80° C. for later use.

hyperlipidemia rats [2] = assay: Serum biochemical indicators in high-fat diet hyperlipidemia rats; assay type: in vivo, SD rats; details: serum, 20 mg/(kg d) by gastric gavage, 4 weeks; for ALT (U/L) / AST (U/L) / Bun / Cr: x ± s, n = 9
Source text: as §1
(§4) Drug to be tested: Nuciferine purchased from Shanghai Aladdin Biochemical Technology Co., Ltd., China, and its derivatives (purity >99%) that were synthesized in the laboratory by the methods of Examples 2-7.
(§5) Other reagents: AST, ALT, TC, TG, NEFA, Bun, Cr, CAT, GSH-Px, GSH, MDA test kits, purchased from Nanjing Jiancheng Bioengineering Institute, China; HL and PL test kits, purchased from Jianglai Biotechnology Co., Ltd., China; experimental reagents such as anhydrous ethanol, xylene, isopropanol neutral gum, purchased from Sinopharm Chemical Reagent Co., Ltd., China; HE dye solution, DAB color development agent, and oil red O dye solution, purchased from KeyGEN Biotechnology Co., Ltd, China; Antibodies IL-6 and TNF-α, purchased from Abcam Limited.
as §2, with “weeks. Within 4 weeks after modeling, continuous administration was performed: the blank control group and model group were given 0.2 mL of distilled water by gastric gavage; the positive control group was administrated 20 mg/(kg d) of simvastatin; while the treatment group was administrated 20 mg/(kg d) of nuciferine or 20 mg/(kg d) of a derivative of nuciferine (compounds 6a-6f).” for “weeks.”
Blood sample collection: 24 h after the last gastric gavage administration, eyeballs were taken out and blood was drawn. Whole blood was collected in an EP tube, and centrifuged at 3000 r/min and 4° C. for 10 min, and the supernatant was collected and stored at −20° C. for blood biochemical indicator test.
(§6) Biochemical indicator determination: indicators AST, ALT, TC, TG, NEFA, Bun, Cr, CAT, GSH-Px, GSH, MDA, HL, PL were determined according to the instructions of the kits.

hyperlipidemia rats [3] = assay: Liver tissue homogenate biochemical indicators in high-fat diet hyperlipidemia rats; assay type: in vivo, SD rats; details: liver tissue, 20 mg/(kg d) by gastric gavage, 4 weeks, x ± s, n = 9
Source text: as §1, §4, §5
as §2, with “weeks. Within 4 weeks after modeling, continuous administration was performed: the blank control group and model group were given 0.2 mL of distilled water by gastric gavage; the positive control group was administrated 20 mg/(kg d) of simvastatin; while the treatment group was administrated 20 mg/(kg d) of nuciferine or 20 mg/(kg d) of a derivative of nuciferine (compounds 6a-6f).” for “weeks.”
as §3
Preparation of 10% liver homogenate: the liver wrapped in tin box and stored in the ultra-low temperature freezer at −80° C. was taken out, and quickly placed on an ice box. 0.2 g of liver tissue was accurately taken, and ice normal saline with a volume 9 times that of the liver issue was added thereto. 10% tissue homogenate was formed by grounding and mixing, and then centrifuged at 3000 r/min and 4° C. for 10 min. The supernatant was collected for later use.
as §6

[4] = cited from earlier work
hyperlipidemia rats [5] = assay: Liver appearance and HE histopathological observation in hyperlipidemia rats; assay type: in vivo, SD rats; details: compared with the model group, 20 mg/(kg d)
Source text: as §1, §2, §3

[6] = TCMSP database, screening threshold OB ≥30%

Row | Molecule | Kidney index (%) (hyperlipidemia rats [1]) | Liver index (%) (hyperlipidemia rats [1]) | LDL-C (hyperlipidemia rats [2]) [mmol/L] | TC (hyperlipidemia rats [2]) [mmol/L] | TG (hyperlipidemia rats [2]) [mmol/L] | ALT (U/L) (hyperlipidemia rats [2]) | AST (U/L) (hyperlipidemia rats [2]) | Bun (hyperlipidemia rats [2]) [mmol/L] | Cr (hyperlipidemia rats [2]) [µmol/L] | CAT (U/mgprot) (hyperlipidemia rats [3]) | GSH (μmol/gprot) (hyperlipidemia rats [3]) | GSH-Px (U/mgprot) (hyperlipidemia rats [3]) | HL (U/mgprot) (hyperlipidemia rats [3]) | LPL (U/mgprot) (hyperlipidemia rats [3]) | MDA (nmol/mgprot) (hyperlipidemia rats [3]) | NEFA (μmol/g prot) (hyperlipidemia rats [3]) | TG (mmol/g prot) (hyperlipidemia rats [3]) | OB/% (oral bioavailability) [4, 6] [%] | also measured
1 | CCC(C)(C)C(=O)O[C@H]1C[C@@H](C)C=C2C=C[C@H](C)[C@H](CC[C@@H]3C[C@@H](O)CC(=O)O3)[C@H]21 [Simvastatin, simvastatin, reference compound] | 0.68 ± 0.03 | 4.47 ± 0.36 | 0.62 ± 0.17 | 2.00 ± 0.19 | 0.47 ± 0.05 | 13.74 ± 4.06 | 7.57 ± 1.78 | 3.98 ± 0.43 | 53.79 ± 7.58 | 29.35 ± 7.00 | 341.36 ± 98.66 | 708.02 ± 47.00 | 0.45 ± 0.11 | 0.50 ± 0.06 | 0.84 ± 0.19 | 103.22 ± 8.89 | 0.09 ± 0.01 | – | –
2 | COc1cc2c(cc1O)C(Cc1ccc(O)cc1)NCC2 (stereo not drawn) [Machiline] | – | – | – | – | – | – | – | – | – | – | – | – | – | – | – | – | – | 79.64 | –
3 | COc1cc2c3c(c1OC)-c1ccccc1CC3N(C(C)=O)CC2 (stereo not drawn) [Compound 6f, Acetylnuciferine] | 0.68 ± 0.03 | 4.58 ± 0.25 | 0.69 ± 0.16 | 2.02 ± 0.16 | 0.58 ± 0.07 | 16.73 ± 9.74 | 7.74 ± 2.22 | 3.62 ± 0.15 | 52.82 ± 4.36 | 27.42 ± 2.82 | 361.04 ± 43.65 | 560.90 ± 62.45 | 0.56 ± 0.06 | 0.26 ± 0.08 | 0.98 ± 0.56 | 106.32 ± 22.95 | 0.13 ± 0.02 | – | –
4 | Oc1cc(O)c2c(c1)OC(c1ccc(O)c(O)c1)C(O)C2O (single isomer, unassigned; (+)) [(+)-Leucocyanidin] | – | – | – | – | – | – | – | – | – | – | – | – | – | – | – | – | – | 37.61 | –
5 | COc1cc2c3c(c1OC)-c1ccccc1CC3N(C(=O)c1ccccc1)CC2 (stereo not drawn) [Compound 6a, Benzoylnuciferine] | 0.68 ± 0.04 | 4.58 ± 0.29 | 0.54 ± 0.09 | 1.94 ± 0.18 | 0.56 ± 0.05 | 15.46 ± 8.79 | 7.85 ± 2.23 | 3.16 ± 0.17 | 51.82 ± 7.06 | 26.06 ± 2.69 | 360.02 ± 43.63 | 550.96 ± 60.97 | 0.35 ± 0.03 | 0.27 ± 0.03 | 0.94 ± 0.27 | 107.69 ± 6.44 | 0.10 ± 0.02 | – | Liver appearance (photographs, FIG. 8) (hyperlipidemia rats [5]): more brittle
6 | (−)-catechin | – | – | – | – | – | – | – | – | – | – | – | – | – | – | – | – | – | – | OB/% (oral bioavailability) ([4]; po): 49.68%
7 | COc1cc2c(cc1OC)C(Cc1ccc(O)cc1)N(C)CC2 (stereo not drawn) [Armepavine] | – | – | – | – | – | – | – | – | – | – | – | – | – | – | – | – | – | 69.31 | –
8 | COc1cc(-c2oc3cc(O)cc(O)c3c(=O)c2O)ccc1O [isorhamnetin] | – | – | – | – | – | – | – | – | – | – | – | – | – | – | – | – | – | 49.6 | –
9 | CC(C)=CCC[C@@H](C)[C@H]1CC[C@@]2(C)[C@@H]3CC[C@H]4C(C)(C)[C@@H](O)CC[C@@]45C[C@@]35CC[C@]12C [Cycloartenol] | – | – | – | – | – | – | – | – | – | – | – | – | – | – | – | – | – | 38.69 | –
10 | COc1ccc(C(=O)N2CCc3cc(OC)c(OC)c4c3C2Cc2ccccc2-4)cc1 (stereo not drawn) [Compound 6e, p-Methoxybenzoylnuciferine] | 0.68 ± 0.05 | 4.58 ± 0.27 | 0.56 ± 0.08 | 1.95 ± 0.13 | 0.55 ± 0.05 | 15.54 ± 8.69 | 7.65 ± 2.26 | 3.43 ± 0.27 | 52.90 ± 2.21 | 26.34 ± 4.54 | 363.09 ± 71.72 | 537.18 ± 34.93 | 0.37 ± 0.07 | 0.28 ± 0.04 | 1.02 ± 0.73 | 107.69 ± 6.44 | 0.10 ± 0.02 | – | –
11 | CN1CCc2cc(O)c(O)cc2[C@@H]1Cc1ccc(O)cc1 [(1S)-1-(4-hydroxybenzyl)-2-methyl-3,4-dihydro-1H-isoquinoline-6,7-diol] | – | – | – | – | – | – | – | – | – | – | – | – | – | – | – | – | – | 67.14 | –
12 | CN1CCc2cc3c(c4c2C1Cc1ccccc1-4)OCO3 (stereo not drawn) [Remerin] | – | – | – | – | – | – | – | – | – | – | – | – | – | – | – | – | – | 40.75 | –
13 | o-Nornuciferine | – | – | – | – | – | – | – | – | – | – | – | – | – | – | – | – | – | 33.52 | –
14 | Oc1cc(O)c2c(c1)O[C@@H](c1ccc(O)c(O)c1)[C@@H](O)C2 [ent-Epicatechin] | – | – | – | – | – | – | – | – | – | – | – | – | – | – | – | – | – | – | OB/% (oral bioavailability) ([4]; po): 48.96%
15 | COc1cc2c3c(c1OC)-c1ccccc1CC3N(C(=O)c1ccccc1C)CC2 (stereo not drawn) [Compound 6d, o-Methylbenzoylnuciferine] | 0.68 ± 0.04 | 4.58 ± 0.24 | 0.68 ± 0.15 | 2.03 ± 0.09 | 0.57 ± 0.07 | 15.62 ± 9.43 | 7.78 ± 2.27 | 3.56 ± 0.19 | 53.82 ± 6.13 | 25.78 ± 2.67 | 360.02 ± 43.63 | 562.93 ± 68.91 | 0.37 ± 0.08 | 0.42 ± 0.06 | 0.95 ± 0.48 | 106.32 ± 22.95 | 0.13 ± 0.02 | – | –
16 | Oc1cc(O)c2c(c1)O[C@@H](c1cc(O)c(O)c(O)c1)[C@@H](O)[C@@H]2O [leucodelphinidin] | – | – | – | – | – | – | – | – | – | – | – | – | – | – | – | – | – | 30.02 | –
17 | COc1cc2c3c(c1OC)-c1ccccc1CC3N(C(=O)c1ccc(C)cc1)CC2 (stereo not drawn) [Compound 6c, p-Methylbenzoylnuciferine] | 0.68 ± 0.03 | 4.58 ± 0.26 | 0.54 ± 0.08 | 1.93 ± 0.16 | 0.56 ± 0.07 | 16.44 ± 8.69 | 7.86 ± 2.24 | 3.45 ± 0.51 | 51.39 ± 5.83 | 27.43 ± 3.14 | 374.63 ± 137.14 | 567.63 ± 51.57 | 0.44 ± 0.78 | 0.50 ± 0.07 | 0.94 ± 0.38 | 107.69 ± 6.44 | 0.10 ± 0.02 | – | –
